Experimental data published in patent US12324845B2, “Ligands for imaging cardiac innervation” (Lantheus Medical Imaging, Inc., priority 2006, dated 2025).
Counter-ions that a name gives are not always drawn.

Target: T1, human norepinephrine transporter (Homo sapiens, UniProt P23975)
T1 construct: purchased Perkin-Elmer; host or cells: MDCK cells (membrane preparation)
Test: Norepinephrine Transporter Binding Assay ([3H]desipramine displacement, MDCK cell membranes)
Details: MDCK cell membrane preparation expressing human NET; [3H]desipramine 2 nM; 2 h on ice; triplicate
Procedure: Unless otherwise stated, all reactions were conducted under an inert atmosphere of dry nitrogen. Indicated temperatures refer to those of the reaction bath, while ambient laboratory temperature is noted as 22° C. Anhydrous dimethylformamide (DMF), dimethylsulfoxide (DMSO), acetonitrile (MCCN), pyridine, triethylamine (TEA), and diisopropylethylamine (DIEA) were obtained from Aldrich in SureSeal® bottles. Absolute ethanol was obtained from Quantum Chemical Corp. Merck silica gel, grade 9385, 230-400 mesh, 60 Å was used for flash chromatography. Ethyl acetate (EtOAc), chloroform (CHCl3), methanol (MeOH), HPLC grade acetonitrile (MeCN), dichloromethane (DCM), ethyl ether, acetone, sodium hydroxide (NaOH), and hydrochloric acid (HCl) were obtained from Baker. 1-Trityl-1H-imidazole-2-amine was prepared according to a published procedure (U.S. Pat. No. 6,130,231, incorporated by reference in its entirety). 1-Bromo-2-fluoroethane was purchased from Alfa Aesar. 3-Methoxy-4-fluorobenzonitrile was purchased from TCI. MDCK cell membranes expressing human norepinephrine transporter, and [^3H]desipramine were purchased from Perkin-Elmer. [^18F]NaF was obtained from PETNET Pharmaceutical Services (Cummings Park, Woburn, MA) on a MP1 anion exchange resin (BioRad) cartridge. Other reagents were obtained from Lancaster Synthesis, Inc., Sigma-Aldrich Chemical Co, or Fluka Chemical Corp.
Inhibitors to be tested were dissolved in incubation buffer (50 mM Tris-HCl, 10% sucrose, pH 7.4) at appropriate dilutions. The inhibitor solutions were added to the wells of a microtiter plate (40 μL/well) in triplicate. Each well of test agent (and appropriate control wells) was treated with a mixture of MDCK cell membrane preparation (22.4 μg of membrane) expressing human norepinephrine transporter (Bmax=3.7 pmol norepinephrine transporter/mg protein), and [^3H]desipramine (2 nM, 64.8 Ci/mmol) in a total volume of 0.2 mL. The resulting mixtures were incubated for 2 h on ice. A 96 well GF/C filter plate was presoaked with coating buffer (0.5% polyvinylpyrrolidine and 0.1% Tween 20) for 2 h at room temperature. The presoaked filter plate was washed with incubation buffer (6×0.2 mL). The NET reactions were transferred to the coated filter plate and filtered. The filter plate was washed (6×0.2 mL) with ice cold wash buffer (50 mM Tris-HCl, 0.9% NaCl, pH 7.4). The plate was dried overnight, incubated briefly with 25 μL scintillant, and read on a Micro Beta plate reader.

T1 sequence (P23975 whole entry): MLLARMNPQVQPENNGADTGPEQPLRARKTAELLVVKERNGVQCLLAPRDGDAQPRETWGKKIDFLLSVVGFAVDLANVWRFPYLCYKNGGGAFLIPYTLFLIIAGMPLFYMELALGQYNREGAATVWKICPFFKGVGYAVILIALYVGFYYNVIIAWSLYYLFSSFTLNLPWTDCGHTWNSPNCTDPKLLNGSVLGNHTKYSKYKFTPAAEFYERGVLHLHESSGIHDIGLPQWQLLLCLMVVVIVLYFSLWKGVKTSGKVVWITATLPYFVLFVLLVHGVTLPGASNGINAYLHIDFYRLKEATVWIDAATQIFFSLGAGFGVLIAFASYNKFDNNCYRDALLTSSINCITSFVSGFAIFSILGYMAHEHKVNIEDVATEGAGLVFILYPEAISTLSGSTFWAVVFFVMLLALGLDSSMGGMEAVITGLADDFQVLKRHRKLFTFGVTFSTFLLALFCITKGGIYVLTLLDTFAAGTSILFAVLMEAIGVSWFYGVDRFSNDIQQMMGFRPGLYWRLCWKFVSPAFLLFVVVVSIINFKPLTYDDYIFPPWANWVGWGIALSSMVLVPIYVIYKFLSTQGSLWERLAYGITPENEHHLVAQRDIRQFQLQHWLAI

## Cl.N=C1NCC(c2ccc(OCCF)cc2)N1 (centres unmarked) [Example 4, 4-(4-(2-Fluoroethoxy)phenyl)imidazolidin-2-iminium Chloride]
  NET Affinity: 7.27 µM

## Cl.N=C(N)N/C=C/c1ccc(OCCF)cc1 [Example 5, (E)-1-(4-(2-Fluoroethoxy)styryl)guanidinium Chloride]
  NET Affinity: 4.10 µM

## COc1cc(CNC(=N)N)ccc1F.Cl [Example 7, 3-Methoxy-4-fluorobenzylguanidinium Chloride]
  NET Affinity: 20.71 µM

## Cl.N=C(N)NCc1ccc(OCCF)c(Br)c1 [Example 8, 3-Bromo-4-(2-fluoroethoxy)benzylguanidinium Chloride]
  NET Affinity: 5.65 µM

## CNC(C)C(O)c1ccc(F)c(O)c1 (centres unmarked) [Example 11, 1-(4-Fluoro-3-hydroxyphenyl)-1-hydroxy-N-methylpropan-2-aminium Trifluoroacetate]
  NET Affinity: 54.85 µM

## N=C(N)NCc1cccc(OCCF)c1 [Example 9, 3-(2-Fluoroethoxy)benzylguanidinium Trifluoroacetate]
  NET Affinity: 4.36 µM

## N=C(N)NCCc1ccc(OCCF)c(Cl)c1 [Example 10, 3-Chloro-4-(2-fluoroethoxy)phenethylguanidinium Trifluoroacetate]
  NET Affinity: 1.80 µM

## Cl.N=C(N)NCCc1ccc(OCCF)cc1 [Example 3, 1-(4-(2-Fluoroethoxy)phenethyl)guanidinium Chloride]
  NET Affinity: 1.45 µM

## Cl.N=C(N)NCC(O)c1ccc(OCCF)cc1 (centres unmarked) [Example 2, 1-(2-(4-(2-fluoroethoxy)phenyl)-2-hydroxyethyl)guanidinium Chloride]
  NET Affinity: <20 µM

## Fc1ccc(CNc2ncc[nH]2)cc1C(F)(F)F [Example 1, N-(4-Fluoro-3-(trifluoromethyl)benzyl)-1H-imidazol-2-amine]
  NET Affinity: 17.94 µM

## CC(N)C(O)c1cc(O)c(OCCF)c(O)c1.Cl (centres unmarked) [Example 6, 5-(2-Amino-1-hydroxypropyl)-2-(2-fluoroethoxy)benzene-1,3-diol Hydrochloride]
  NET Affinity: 102.8 µM
